The results in this text go back to patent US4552882A, “7-(1-Pyrrolyl) derivatives of 1-ethyl-1,4-dihydro-4-oxoquinoline-3-carboxylic acids and 1-ethyl-1,4-dihydro-4-oxo-1,8-naphthyridine-3-carboxylic acids and their use as antimicrobial agents” (Provesan, SA, priority 1983, dated 1985).

In brackets after ≈: the same amount, converted by molar mass.

By MIC is commonly meant the lowest concentration found to suppress growth. High values mean a need for much substance, low ones inhibition by little substance.

Assay [1] deals with Pseudomonas aeroginosa ADSA 47. As to the kind of experiment: MIC in vitro. It counts as cell-based, Pseudomonas aeruginosa. To be noted: ADSA47, Dextrose agar, 37° C., 20 hours. How it is done: (§1) (G. L. Daquet and Y. A. Chabbect, Techniques en bacteriologie (Bacteriological techniques), vol. 3, Flammarion Medecine Sciences, Paris, 1972 and W. B. Hugo and A. D. Rusell, Pharmaceutical Microbiology, Blackwell Scientific Publications, London, (1977)). Antibiotic medium no. 1 (seed agar) (Oxoid CM 327) Tryptone-soya broth (Oxoid CM 129) Ringer's physiological solution 1/4 (oxoid BR 52) Dextrose agar (BBL-11165) 0.1 N NaOH "Pseudomonas aeruginosa" ADSA 47 Each of the microorganisms is seeded by streaking in tubes of Antibiotic medium No. 1 (seed agar), which are then incubated at 37° C. for 20 hours. Using a culture loop, the cultures are then seeded in tryptone-soyabroth and incubated at 37° C. for 20 hours. The culture obtained is diluted to 1/4 with Ringer's physiological solution, so as to obtain a standardized suspension of 10^7 -10^9 cfu/ml for each organism. Starting from a solution of 1,000 μg/ml in 0.1 N NaOH, each product is diluted in Dextrose agar (previously melted and maintained at 50° C.), with successive dilutions so as to obtain the following concentrations: 64--32--16--8--4--2--1--0.5--0.25--0.125 μg of derivative/ml medium. For each product, the solution of each concentration is subsequently distributed into Petri dishes 10 cm in diameter, with 10 ml of medium per dish and the same number of dishes as microorganisms to be tested. As soon as the medium has cooled, the dishes are seeded with the inoculations using 0.4 ml of inoculation per dish. They are spread with a Driglasky loop and the supernatant is removed. The seeded dishes are incubated at 37° C. for 20 hours.

Assay [2] concerns Salmonella typhimurius AMES 100. As to the kind of experiment: MIC in vitro. The class given is cell-based, Salmonella typhimurium. To be noted: AMES100, Dextrose agar, 37° C., 20 hours. How it is done:
(§2) (G. L. Daquet and Y. A. Chabbect, Techniques en bacteriologie (Bacteriological techniques), vol. 3, Flammarion Medecine Sciences, Paris, 1972 and W. B. Hugo and A. D. Rusell, Pharmaceutical Microbiology, Blackwell Scientific Publications, London, (1977)).
(§3) Antibiotic medium no. 1 (seed agar) (Oxoid CM 327)
(§4) Tryptone-soya broth (Oxoid CM 129)
(§5) Ringer's physiological solution 1/4 (oxoid BR 52) Dextrose agar (BBL-11165) 0.1 N NaOH
"Salmonella typhimurium" AMES 100
(§6) Each of the microorganisms is seeded by streaking in tubes of Antibiotic medium No. 1 (seed agar), which are then incubated at 37° C. for 20 hours. Using a culture loop, the cultures are then seeded in tryptone-soyabroth and incubated at 37° C. for 20 hours. The culture obtained is diluted to 1/4 with Ringer's physiological solution, so as to obtain a standardized suspension of 10^7 -10^9 cfu/ml for each organism.
(§7) Starting from a solution of 1,000 μg/ml in 0.1 N NaOH, each product is diluted in Dextrose agar (previously melted and maintained at 50° C.), with successive dilutions so as to obtain the following concentrations: 64--32--16--8--4--2--1--0.5--0.25--0.125 μg of derivative/ml medium.
(§8) For each product, the solution of each concentration is subsequently distributed into Petri dishes 10 cm in diameter, with 10 ml of medium per dish and the same number of dishes as microorganisms to be tested.
(§9) As soon as the medium has cooled, the dishes are seeded with the inoculations using 0.4 ml of inoculation per dish. They are spread with a Driglasky loop and the supernatant is removed. The seeded dishes are incubated at 37° C. for 20 hours.

Assay [3] has as its system Escherichia coli R-1513. In words: MIC in vitro. The class given is cell-based. To be noted: R1513, Dextrose agar, 37° C., 20 hours. How it is done: as §1, with “"Escherichia coli" R-1513” for “"Pseudomonas aeruginosa" ADSA 47”
In assay [4] the test system is enterobacteriaceae (Pseudomonas aeruginosa). In words: in vitro antimicrobial activity compared to pipemidic acid. It counts as cell-based. How it is done:
as §2, §3, §4, §5, §6, §7, §8, §9

For the compound `CCn1cc(C(=O)O)c(=O)c2ccc(-n3cccc3)nc21` [Example 3, 1-ethyl-1,4-dihydro-4-oxo-7-(1-pyrrolyl)-1,8-naphthyridine-3-carboxylic acid], the results for the MIC in assay [1], in assay [2] and in assay [3] were over 64 µg/mL, 8 µg/mL (≈ 28.2 µM) and 16 µg/mL (≈ 56.5 µM), respectively.

For `CCn1cc(C(=O)O)c(=O)c2cc(F)c(-n3cccc3)cc21` [Example 2, 6-fluoro-7-(1-pyrrolyl)-1-ethyl-1,4-dihydro-4-oxo-3-quinolinecarboxylic acid], the results for the minimum inhibitory concentration (MIC) in assay [1], in assay [2] and in assay [3] were 64 µg/mL (≈ 213 µM), 0.5 µg/mL (≈ 1.67 µM) and 4 µg/mL (≈ 13.3 µM), respectively. Besides, in assay [4], the “"in vitro" activity compared to pipemidic acid” value is “greater than that of pipemidic acid”.

Turning to `CCn1cc(C(=O)O)c(=O)c2cnc(N3CCNCC3)nc21` [Pipemidic acid, reference compound], the MIC was 32 µg/mL (≈ 105 µM) in assay [1], 8 µg/mL (≈ 26.4 µM) in assay [2] and 16 µg/mL (≈ 52.7 µM) in assay [3].

On to `CCn1cc(C(=O)O)c(=O)c2ccc(-n3cccc3)cc21` [Example 1, 7-(1-pyrrolyl)-1-ethyl-1,4-dihydro-4-oxo-3-quinolinecarboxylic acid], for which the MIC is over 64 µg/mL in assay [1], 4 µg/mL (≈ 14.2 µM) in assay [2] and 16 µg/mL (≈ 56.7 µM) in assay [3]. The “"in vitro" activity compared to pipemidic acid” value in assay [4] is “greater than that of pipemidic acid”.

As for `CCn1cc(C(=O)O)c(=O)c2cc(F)c(-n3cccc3)nc21` [Example 4, 1-ethyl-1,4-dihydro-4-oxo-6-fluoro-7-(1-pyrrolyl)-1,8-naphthyridine-3-carboxylic acid], the figures for the minimum inhibitory concentration (MIC) in assay [1], in assay [2] and in assay [3] were over 64 µg/mL, 0.5 µg/mL (≈ 1.66 µM) and 4 µg/mL (≈ 13.3 µM), respectively. Further, in assay [4], the “"in vitro" activity compared to pipemidic acid” value is “greater than that of pipemidic acid”.
